Data: patent US8530701B2, “High purity 2-[4-(3- OR 2-fluorobenzyloxy)benzylamino]propanamides and methods of use thereof” (priority 2007, dated 2013)
pIC50: −log10 of the molar value. Where two headings read alike, the source gives them in different places. Each block holds one compound with its values, some of them ahead of it.

Tests used:
[1] = tested on: human neuroblastoma cell line SH-SY-5Y; experiment: Cytotoxicity assay in human neuroblastoma cell line SH-SY-5Y; assay type: cell-based
Experimental: (§1) At time zero, the cells were seeded at 1.10^4/cm^2 in 96 well plates in DMEM growth medium+10% heat inactivated FBS+2 mM 1-Glutamine+100 U/mL-100 μg/mL Penicillin/Streptomycin.
(§2) After 72 hours at subconfluent phase of growth, the medium was removed and cells were incubated for 24 hours at 37° C. in 180 μL of neurobasal medium+2 mM 1-Glutamine (Life Techonologies) with or without test compounds (20 μL, at least 5 concentrations in triplicate).
(§3) At the end of incubation, 20 μL of Alamar Blue dye (AlamarBlue™ Assay Kit, Promega) were directly added to the cell medium.
(§4) Four hours after, the cytotoxicity was assessed by measuring the fluorescence at 530 nm excitation and 595 nm emission using Tecan Spectrafluor plate reader.
(§5) Before and at the end of the treatment, the cultures were monitored microscopically by an Olympus IX70 inverted light microscope matched to an Image Analyzer (Image Pro Plus, 5.1) to evaluate the cellular morphology.
(§6) Results are expressed in Table 1 as concentration inducing 50% of mortality.

CYP3A4 = molecular target: T1, CYP3A4 (Homo sapiens, UniProt P08684); experiment: Cytochrome P450 assay (Gentest Kit), CYP3A4; assay type: in vitro ADME
T1 construct: purchased Gentest
T1 sequence (P08684 whole entry): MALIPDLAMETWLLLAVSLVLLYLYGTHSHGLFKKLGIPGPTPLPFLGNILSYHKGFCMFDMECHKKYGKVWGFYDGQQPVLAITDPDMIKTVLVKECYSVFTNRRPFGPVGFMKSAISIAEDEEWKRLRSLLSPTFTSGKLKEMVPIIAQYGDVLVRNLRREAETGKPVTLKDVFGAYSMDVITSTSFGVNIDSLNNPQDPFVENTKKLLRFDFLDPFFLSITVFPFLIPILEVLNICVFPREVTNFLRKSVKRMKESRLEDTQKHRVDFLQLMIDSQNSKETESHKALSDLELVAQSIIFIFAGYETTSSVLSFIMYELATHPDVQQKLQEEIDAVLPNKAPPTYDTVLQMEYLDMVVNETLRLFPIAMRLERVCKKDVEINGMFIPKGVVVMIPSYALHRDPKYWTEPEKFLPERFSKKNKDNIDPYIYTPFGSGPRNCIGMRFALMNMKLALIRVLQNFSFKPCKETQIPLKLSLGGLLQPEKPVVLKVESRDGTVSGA
Experimental: (§7) Inhibition of the five most important Cytochrome P450 isoforms (CYP1A2, CYP2C9, CYP2C19, CYP2D6 and CYP3A4), involved in drug metabolism, was measured using specific substrates that become fluorescent upon CYP metabolism (Gentest Kit assay).
(§8) Compounds were tested in a 96-well plate containing incubation/NADPH regenerating buffer. Specific human recombinant isoenzymes and substrates were added and incubated at 37° C. for 15 min for CYP1A2/CEC, 40 min for CYP2E1/MFC, 45 min for CYP2C9/MFC and 30 min for the others CYP450.
(§9) The specific substrates were the following: 3-cyano-7-ethoxycoumarin (CYP2C19 and CYP1A2), • 7-methoxy-4-trifluoromethylcoumarin (CYP2C9), • 3[2(N,N-diethyl-N-methylamino)ethyl]-7-methoxy-4-methylcoumarin (CYP2D6) • benzylphenylcoumarin (CYP3A4)

CYP2D6 = molecular target: T2, CYP2D6 (Homo sapiens, UniProt P10635); experiment: Cytochrome P450 assay (Gentest Kit), CYP2D6; assay type: in vitro ADME
T2 construct: purchased Gentest
T2 sequence (P10635 whole entry): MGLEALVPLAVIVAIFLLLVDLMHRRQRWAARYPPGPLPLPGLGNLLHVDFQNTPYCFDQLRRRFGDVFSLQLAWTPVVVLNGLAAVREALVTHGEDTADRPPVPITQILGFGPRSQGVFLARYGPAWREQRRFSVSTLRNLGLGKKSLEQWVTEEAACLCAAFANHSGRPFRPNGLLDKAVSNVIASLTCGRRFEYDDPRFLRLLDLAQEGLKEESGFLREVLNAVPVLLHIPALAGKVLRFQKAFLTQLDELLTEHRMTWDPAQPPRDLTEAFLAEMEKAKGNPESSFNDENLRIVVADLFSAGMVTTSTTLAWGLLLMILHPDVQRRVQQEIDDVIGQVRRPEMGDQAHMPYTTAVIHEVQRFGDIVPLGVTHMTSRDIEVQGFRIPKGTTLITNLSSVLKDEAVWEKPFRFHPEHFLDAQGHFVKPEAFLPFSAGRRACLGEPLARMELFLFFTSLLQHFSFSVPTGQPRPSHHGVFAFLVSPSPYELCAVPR
Experimental: as §7, §8, §9

CYP2C19 = molecular target: T3, CYP2C19 (Homo sapiens, UniProt P33261); experiment: Cytochrome P450 assay (Gentest Kit), CYP2C19; assay type: in vitro ADME
T3 construct: purchased Gentest
T3 sequence (P33261 whole entry): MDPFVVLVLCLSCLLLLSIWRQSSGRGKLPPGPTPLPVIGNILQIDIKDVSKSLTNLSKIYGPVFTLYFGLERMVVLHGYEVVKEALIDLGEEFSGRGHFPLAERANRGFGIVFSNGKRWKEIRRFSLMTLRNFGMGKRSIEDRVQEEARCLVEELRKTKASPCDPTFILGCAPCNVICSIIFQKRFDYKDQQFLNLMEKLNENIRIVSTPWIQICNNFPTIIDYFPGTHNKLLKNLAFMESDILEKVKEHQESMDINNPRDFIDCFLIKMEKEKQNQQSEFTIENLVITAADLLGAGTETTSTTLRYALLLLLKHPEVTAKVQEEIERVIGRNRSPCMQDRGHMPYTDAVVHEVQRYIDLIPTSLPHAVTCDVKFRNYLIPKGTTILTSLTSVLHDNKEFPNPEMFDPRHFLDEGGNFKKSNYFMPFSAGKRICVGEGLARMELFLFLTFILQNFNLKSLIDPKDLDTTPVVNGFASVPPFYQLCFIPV
Experimental: as §7, §8, §9

CYP2C9 = molecular target: T4, CYP2C9 (Homo sapiens, UniProt P11712); experiment: Cytochrome P450 assay (Gentest Kit), CYP2C9; assay type: in vitro ADME
T4 construct: purchased Gentest
T4 sequence (P11712 whole entry): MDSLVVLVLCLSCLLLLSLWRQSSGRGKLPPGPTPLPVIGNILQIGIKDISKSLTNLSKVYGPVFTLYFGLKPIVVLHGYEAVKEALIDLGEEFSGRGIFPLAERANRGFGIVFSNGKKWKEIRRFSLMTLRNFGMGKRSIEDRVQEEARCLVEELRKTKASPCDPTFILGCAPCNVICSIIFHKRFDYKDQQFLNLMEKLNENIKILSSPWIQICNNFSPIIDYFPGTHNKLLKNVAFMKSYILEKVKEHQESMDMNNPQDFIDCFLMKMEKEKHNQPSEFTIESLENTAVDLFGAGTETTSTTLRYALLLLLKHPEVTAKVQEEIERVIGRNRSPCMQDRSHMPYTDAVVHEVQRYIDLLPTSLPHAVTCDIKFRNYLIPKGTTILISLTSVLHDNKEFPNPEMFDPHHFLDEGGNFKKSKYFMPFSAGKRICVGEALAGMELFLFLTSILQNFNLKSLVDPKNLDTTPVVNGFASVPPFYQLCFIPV
Experimental: as §7, §8, §9

CYP1A2 = molecular target: T5, CYP1A2 (Homo sapiens, UniProt P05177); experiment: in vitro; assay type: in vitro ADME
T5 construct: purchased Gentest
T5 sequence (P05177 1-516): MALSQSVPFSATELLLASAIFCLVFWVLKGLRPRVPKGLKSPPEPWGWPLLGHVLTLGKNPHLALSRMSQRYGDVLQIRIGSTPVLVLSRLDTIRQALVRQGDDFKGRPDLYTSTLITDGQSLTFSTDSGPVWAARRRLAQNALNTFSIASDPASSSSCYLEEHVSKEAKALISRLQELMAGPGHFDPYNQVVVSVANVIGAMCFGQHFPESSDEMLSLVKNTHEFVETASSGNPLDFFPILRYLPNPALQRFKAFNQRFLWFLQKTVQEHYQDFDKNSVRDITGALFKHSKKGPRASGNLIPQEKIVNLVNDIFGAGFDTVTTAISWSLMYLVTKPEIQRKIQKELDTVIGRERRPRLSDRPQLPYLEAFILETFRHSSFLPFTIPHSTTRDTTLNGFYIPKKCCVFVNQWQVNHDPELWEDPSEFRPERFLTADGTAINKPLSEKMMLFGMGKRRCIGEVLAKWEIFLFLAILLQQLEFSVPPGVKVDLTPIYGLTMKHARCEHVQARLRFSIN
Experimental: as §7, §8, §9

recombinant HERG channel [2] = molecular target: T6, recombinant HERG channel (Homo sapiens, UniProt Q12809)
T6 sequence (Q12809 whole entry): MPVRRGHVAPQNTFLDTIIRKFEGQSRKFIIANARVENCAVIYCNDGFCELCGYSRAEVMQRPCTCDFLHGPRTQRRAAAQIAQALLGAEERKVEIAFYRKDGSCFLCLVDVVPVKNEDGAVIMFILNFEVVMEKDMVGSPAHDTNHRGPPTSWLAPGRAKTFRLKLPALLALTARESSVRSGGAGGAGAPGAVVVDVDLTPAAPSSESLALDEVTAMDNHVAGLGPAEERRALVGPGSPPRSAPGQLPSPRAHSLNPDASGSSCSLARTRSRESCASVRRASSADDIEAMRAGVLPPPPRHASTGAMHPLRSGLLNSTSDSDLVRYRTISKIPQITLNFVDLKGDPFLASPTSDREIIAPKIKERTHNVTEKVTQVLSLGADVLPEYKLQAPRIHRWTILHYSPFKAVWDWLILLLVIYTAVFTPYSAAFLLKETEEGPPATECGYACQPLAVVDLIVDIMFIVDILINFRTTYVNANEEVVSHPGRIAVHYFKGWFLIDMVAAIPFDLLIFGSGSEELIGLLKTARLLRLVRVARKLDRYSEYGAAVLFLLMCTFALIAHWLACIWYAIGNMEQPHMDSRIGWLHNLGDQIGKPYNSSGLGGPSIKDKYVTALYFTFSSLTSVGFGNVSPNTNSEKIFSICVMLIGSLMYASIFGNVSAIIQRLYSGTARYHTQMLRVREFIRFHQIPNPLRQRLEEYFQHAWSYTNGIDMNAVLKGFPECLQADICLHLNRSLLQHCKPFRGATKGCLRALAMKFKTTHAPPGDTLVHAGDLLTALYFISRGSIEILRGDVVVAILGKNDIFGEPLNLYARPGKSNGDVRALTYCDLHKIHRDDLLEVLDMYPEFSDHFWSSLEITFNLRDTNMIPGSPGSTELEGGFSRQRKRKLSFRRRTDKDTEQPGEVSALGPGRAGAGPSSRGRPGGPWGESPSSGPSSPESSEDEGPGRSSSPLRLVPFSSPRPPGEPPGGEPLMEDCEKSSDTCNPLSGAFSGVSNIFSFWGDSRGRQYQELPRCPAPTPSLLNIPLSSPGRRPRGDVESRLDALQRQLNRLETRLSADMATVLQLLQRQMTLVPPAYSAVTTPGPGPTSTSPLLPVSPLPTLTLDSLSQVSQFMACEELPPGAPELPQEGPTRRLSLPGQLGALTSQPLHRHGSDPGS
Experimental: (§10) The inhibition of HERG current was tested in CHO cells stably expressing recombinant HERG channel.
(§11) To evaluate the effect of the test compounds on HERG currents, cells were clamped at −80 mV, depolarised to 0 mV for 5 seconds allowing activation of HERG current and repolarised to −50 mV during 5 seconds allowing HERG tail current to deactivate. This procedure was repeated at a frequency of 0.06 Hz. The current amplitude upon repolarisation (HERG tail current) was measured before and after exposure to the test compound.
(§12) Inhibition of current was calculated as the difference between the amplitude of HERG tail current amplitude measured at the end of external bath perfusion period and HERG tail current measured at the end of test compound perfusion period (when steady-state effect is reached) divided by control HERG tail current.
(§13) Drug concentration-inhibition curves were obtained by plotting tonic blocks versus drug concentrations. Dose-response curves were fitted to the tonic block data, according to the logistic equation: y=A2+(A1−A2)/[1+(x/IC50)^p].

[3] = Cytotoxicity assay in human neuroblastoma cell line SH-SY-5Y; assay type: cell-based; conditions: human, SH-SY-5Y neuroblastoma cells; SH-SY-5Y, 24 hours incubation, Alamar Blue; concentration inducing 50% of mortality
Experimental: as §1, §2, §3, §4, §5, §6

recombinant HERG channel [4] = molecular target: T6, recombinant HERG channel; experiment: HERG current in transfected CHO cell lines
Experimental: as §10, §11, §12, §13

Male CD1 mice = assay type: in vivo
Experimental: The maximal electroshock test (MES) is used commonly in the screening of anti-epileptic drugs in rodent models.
Animals and Apparatus: Male CD1 mice weighing 25 g were used. […] The stimulus was delivered intra-aurally through clip electrodes in mice (0.7 seconds of a 40 mA shock, with a pulse train of 80 Hz having a pulse duration of 0.4 ms). The acute effect of compounds administered intraperitoneally or orally 15-60 min before MES induction were examined and compared with a vehicle control group. Ten mice were studied per group. Complete suppression of the hindlimb tonic extensor component of seizures was taken as evidence of anticonvulsant activity.
The compounds of the invention were administered orally or intraperitoneally at the doses of 3-30 mg/kg.
The results are expressed in Tables 3 and 4 as % of protection.

[5] = Table 1, human recombinant isoenzyme, substrate benzylphenylcoumarin, read-out: CYP3A4 IC50
[6] = human recombinant isoenzyme, fluorescent substrate, read-out: CYP2D6 IC50
[7] = human recombinant isoenzyme, substrate 3-cyano-7-ethoxycoumarin, read-out: CYP2C19 IC50
[8] = human recombinant isoenzyme, substrate 7-methoxy-4-trifluoromethylcoumarin, read-out: CYP2C9 IC50

pIC50 (CYP3A4): 7.22
pIC50 (CYP2D6): 5.92
pIC50 (CYP2C19): 7.52
pIC50 (CYP2C9): 5.30
pIC50 (CYP1A2): 4.40
SMILES: C[C@@H](NCc1ccc(OCc2ccccc2F)c(Cc2ccccc2F)c1)C(N)=O (racemic) [Impurity (IId, II′d), (R,S)-2-[3-(2-fluorobenzyl)-4-(2-fluorobenzyloxy)-benzylamino]propanamide methanesulfonate]
pIC50 [1]: 4.84
pIC50 (recombinant HERG channel [2]): > 6.00

pIC50 (CYP3A4; [5]): 7.05
pIC50 (CYP2D6; [6]): 6.82
pIC50 (CYP2C19; [7]): 6.82
pIC50 (CYP2C9; [8]): 5.31
pIC50 (CYP1A2; human recombinant isoenzyme, substrate 3-cyano-7-ethoxycoumarin, read-out: CYP1A2 IC50): 4.53
SMILES: C[C@@H](NCc1ccc(OCc2cccc(F)c2)c(Cc2cccc(F)c2)c1)C(N)=O [Impurity (II′c), (R)-2-[3-(3-fluorobenzyl)-4-(3-fluorobenzyloxy)-benzylamino]propanamide methanesulfonate]
IC50 at 24 h [3]: 8810 nM
pIC50 (recombinant HERG channel [4]): > 6.00

pIC50 (CYP3A4): 7.22
pIC50 (CYP2D6): 6.51
pIC50 (CYP2C19): 6.77
pIC50 (CYP2C9): 5.25
pIC50 (CYP1A2): 4.55
SMILES: C[C@@H](NCc1ccc(OCc2cccc(F)c2)c(Cc2cccc(F)c2)c1)C(N)=O (racemic) [Impurity (IIc, II′c), (R,S)-2-[3-(3-fluorobenzyl)-4-(3-fluorobenzyloxy)-benzylamino]propanamide methanesulfonate]
pIC50 [1]: 4.93
pIC50 (recombinant HERG channel [2]): > 6.00

SMILES: CS(=O)(=O)O.C[C@H](NCc1ccc(OCc2cccc(F)c2)c(Cc2cccc(F)c2)c1)C(N)=O [Impurity (IIc), (S)-2-[3-(3-fluorobenzyl)-4-(3-fluorobenzyloxy)-benzylamino]propanamide methanesulfonate]
MES dead/live (Male CD1 mice; mice, 3 mg/kg ip): 5/10
MES dead/live (Male CD1 mice; mice, 10 mg/kg ip): 4/10
MES dead/live (Male CD1 mice; mice, 30 mg/kg ip): 4/10
pharmacological activity, i.e. protection from convulsions, in MES test (in words) (Male CD1 mice; mice, ip, from 3 mg/kg): without any pharmacological activity
mortality in the mice MES test (in words) (Male CD1 mice; starting from 3 mg/kg ip): increases

SMILES: CS(=O)(=O)O.C[C@H](NCc1ccc(OCc2ccccc2F)c(Cc2ccccc2F)c1)C(N)=O [Impurity (IId), (S)-2-[3-(2-fluorobenzyl)-4-(2-fluorobenzyloxy)-benzylamino]propanamide methanesulfonate]
MES dead/live (Male CD1 mice; mice, 10 mg/kg p.o.): 0/10
MES dead/live (Male CD1 mice; mice, 20 mg/kg p.o.): 0/10
protection of mice from convulsions in MES test (in words) (Male CD1 mice; p.o. at 10 and 20 mg/kg, compared with same doses of ralfinamide methanesulfonate): doesn't protect mice from convulsions

pIC50 (CYP3A4; [5]): 7.15
pIC50 (CYP2D6; [6]): 6.21
pIC50 (CYP2C19; [7]): 7.52
pIC50 (CYP2C9; [8]): 5.36
IC50 at 15 min (CYP1A2; recombinant human CYP1A2, probe 3-cyano-7-ethoxycoumarin, human recombinant isoenzyme, substrate 3-cyano-7-ethoxycoumarin): > 40000 nM
SMILES: C[C@@H](NCc1ccc(OCc2ccccc2F)c(Cc2ccccc2F)c1)C(N)=O [Impurity (II′d), (R)-2-[3-(2-fluorobenzyl)-4-(2-fluorobenzyloxy)-benzylamino]propanamide methanesulfonate]
IC50 at 24 h [3]: 11500 nM
pIC50 (recombinant HERG channel [4]): > 6.00

SMILES: CS(=O)(=O)O.C[C@H](NCc1ccc(OCc2cccc(F)c2)cc1)C(N)=O [Safinamide methanesulfonate (Ic), (S)-2-[4-(3-fluorobenzyloxy)benzylamino]propanamide methanesulfonate, reference compound]
MES % protection (Male CD1 mice; mice, 3 mg/kg ip): 50%
MES % protection (Male CD1 mice; mice, 10 mg/kg ip): 100%
MES % protection (Male CD1 mice; mice, 30 mg/kg ip): 100%
